For experiment [1], the system named is neuronal cell death inducible putative kinase (NIPK) gene. The experiment can be described thus: NIPK gene expression analysis by oligonucleotide microarray after endoplasmic reticulum stress. The class given is cell-based. As to conditions: rat primary nerve cells, medial expression level taken as 1. The method, then: Rat primary nerve cells prepared from CD rat (Charles River Japan, Inc.) of TP-17 were suspended in B27-supplemented Neurobasal medium (NB medium: GIBCO) charged in a type I collagen-coated 24-well plate and then plated at 250,000 cells/well, followed by culturing for 3 days.
(i) Tunicamycin (Tnc) was added to the culture cells above in a final concentration of 100 nM, (ii) thapsigargin (Thap) was added to the culture cells above in a final concentration of 2 nM, or (iii) the culture cells described above were cultured in glucose-free B27-suplemented DMEM medium with 2 medium changes and then 2-deoxyglucose (2DG) was added in 3 mM. The total RNA was extracted from the cells 4, 8 and 24 hours, respectively, in accordance with the operating manual using RNeasy Mini kit (Qiagen). Cells added to the respective media (drug-free cells) in place of the drugs above (Tnc, Thap and 2DG) were used for control. Using the oligonucleotide microarray (Rat Genome U34A; Affymetrix Corp.), gene expression analysis was conducted on these materials.
The experimental method was carried out in accordance with the expression analysis technical manual of Affymetrix Corp. Gene expression profiles were compared between the cells stimulated with each drug and the cells with no drug. […] (TABLE 1).

Another experiment deals with NIPK gene. In words: NIPK gene expression analysis by oligonucleotide microarray after β amyloid stimulation. It is filed as cell-based. As to conditions: rat primary nerve cells, β amyloid 25 μM, 24 hours after stimulation, medial expression level taken as 1. The method, then:
In order to examine if […] stimulation would affect the expression of NIPK gene with enhanced expression by endoplasmic reticulum stress, gene expression analysis was performed as in EXAMPLE 1, using cells stimulated with β amyloid.
Rat primary nerve cells prepared as in EXAMPLE 1 were suspended in N2-supplemented DMEM medium (GIBCO) and then plated at 250,000 cells/well, followed by incubation for 4 days. After the incubation, β amyloid suspended in the medium above in a final concentration of 25 μM was added to the medium. As in EXAMPLE 1, the total RNA was extracted from the cells 4, 8 and 24 hours after the addition and provided for gene analysis. For control, the cells to which the medium described above was added instead of β amyloid were used. Expression of NIPK was more enhanced in the cells stimulated with β, when compared to control (TABLE 2).

The next experiment concerns the target T1, Akt1 (Homo sapiens, UniProt P31749).
T1 construct: expressed in transfected cells; host or cells: COS7 cells
In words: Immunoprecipitation with anti-V5 antibody and western blotting with anti-Akt1 antibody. The class given is binding. Particulars: V5-tagged NIPK and Akt1 co-expressed in COS7 cells; control GFP and Akt1. The method, then: Using human NIPK cloned into pCDNA3.1-/V5-His TOPO (Invitrogen) vector (EXAMPLE 3) as a template, PCR was carried out with synthetic primers (SEQ ID NO: 3 and SEQ ID NO: 23) and Pfu turbo (Stratagene) as an enzyme under the conditions (1)-(3) to obtain the specific PCR product. • (1) 94° C. for 5 minutes • (2) 94° C. for 30 seconds—60° C. for 30 seconds—72° C. for 1 minute, 25 time • (3) 72° C. for 5 minutes
The PCR product obtained was cloned into pCDNA3.1-/V5-His TOPO (Invitrogen) to transfect Escherichia coli DH5α. The resulting colony was cultured in LB medium to recover V5-tagged human NIPK gene expression vector.
Akt1 gene expression vector was prepared by the following procedures. Using Quick-clone human whole brain cDNA (Clontech) as a template, PCR was carried out with synthetic primers (SEQ ID NO: 24 and SEQ ID NO: 25) and Pfu turbo (Stratagene) as an enzyme under the conditions (1)-(3) below to obtain the specific PCR product. • (1) 94° C. for 5 minutes • (2) 94° C. for 30 seconds—58° C. for 30 seconds—72° C. for 2 minutes, 35 times • (3) 72° C. for 5 minutes […]
(In western blotting, separated proteins are transferred to a membrane and probed.)

T1 sequence (P31749 whole entry): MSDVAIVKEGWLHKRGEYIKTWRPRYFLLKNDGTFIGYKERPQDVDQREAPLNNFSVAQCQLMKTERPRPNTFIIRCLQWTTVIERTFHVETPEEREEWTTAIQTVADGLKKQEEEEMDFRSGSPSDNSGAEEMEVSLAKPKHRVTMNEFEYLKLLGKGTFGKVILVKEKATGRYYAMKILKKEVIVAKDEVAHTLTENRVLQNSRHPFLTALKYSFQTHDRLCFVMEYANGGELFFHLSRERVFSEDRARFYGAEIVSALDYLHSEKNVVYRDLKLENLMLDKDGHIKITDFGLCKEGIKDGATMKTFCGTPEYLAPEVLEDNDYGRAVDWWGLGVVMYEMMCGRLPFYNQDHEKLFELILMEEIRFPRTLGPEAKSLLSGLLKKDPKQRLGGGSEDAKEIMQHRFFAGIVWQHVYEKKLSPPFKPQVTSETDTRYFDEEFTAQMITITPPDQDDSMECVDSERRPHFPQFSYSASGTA

Consider `O=CC[C@@H](O)[C@H](O)[C@H](O)CO` [2DG, 2-deoxyglucose], for which the “Gene Expression Level” value in experiment [1] (glucose-free medium, 2-deoxyglucose 3 mM, 4 hours after addition) was 0.72; in experiment [1] (glucose-free medium, 2-deoxyglucose 3 mM, 8 hours after addition) it was 1.79; in experiment [1] (glucose-free medium, 2-deoxyglucose 3 mM, 24 hours after addition), 2.45.

Regarding `C/C=C(/C)C(=O)O[C@H]1C(C)=C2[C@H]([C@@H]1OC(=O)CCCCCCC)[C@@](C)(OC(C)=O)C[C@H](OC(=O)CCC)[C@@]1(O)[C@H]2OC(=O)[C@@]1(C)O` [Thap, thapsigargin], the “Gene Expression Level” value in experiment [1] (thapsigargin 2 nM, 4 hours after stimulation) amounted to 0.93; in experiment [1] (thapsigargin 2 nM, 8 hours after stimulation) it was 2.70; in experiment [1] (thapsigargin 2 nM, 24 hours after stimulation), 1.64.

In the case of Tunicamycin [Tnc], the “Gene Expression Level” value in experiment [1] (tunicamycin 100 nM, 4 hours after stimulation) stood at 0.41; in experiment [1] (tunicamycin 100 nM, 8 hours after stimulation) it was 1.64; in experiment [1] (tunicamycin 100 nM, 24 hours after stimulation), 1.32.

For β amyloid, in the experiment with NIPK gene, the “Gene Expression Level” value is given as 0.34.

B1: NIPK: human neuronal cell death inducible putative kinase, amino acid sequence SEQ ID NO: 1; V5-tagged, expressed in COS7 cells (protein)
chain: MRATPLAAPAGSLSRKKRLELDDNLDTERPVQKRARSGPQPRLPPCLLPLSPPTAPDRATAVATASRLGPYVLLEPEEGGRAYQALHCPTGTEYTCKVYPVQEALAVLEPYARLPPHKHVARPTEVLAGTQLLYAFFTRTHGDMHSLVRSRHRIPEPEAAVLFRQMATALAHCHQHGLVLRDLKLCRFVFADRERKKLVLENLEDSCVLTGPDDSLWDKHACPAYVGPEILSSRASYSGKAADVWSLGVALFTMLAGHYPFQDSEPVLLFGKIRRGAYALPAGLSAPARCLVRCLLRREPAERLTATGILLHPWLRQDPMPLAPTRSHLWEAAQVVPDGLGLDEAREEEGDREVVLYG
modifications: V5 tag; Homo sapience
notes: V5-tagged, expressed in COS7 cells
As to B1, the “binding to Akt1 within the cells” value in the experiment with Akt1 is listed as “bound to Akt1”.

The values above are taken from US20060111556A1, “Preventives/remedies for neurodegenerative diseases” (priority 2002, published 2006).
